PMC10222203 (Pharmaceutics, 2023)
Where “and” joins values, the source holds several entries; their conditions need not be identical. Identical values can stand only once. Like-named read-outs stand apart in the source and are kept apart here.

How the values were obtained:
[1] = system: neurons differentiated from human neural stem cells; conditions: for Total neuronal cell-to-unbound medium concentration ratio, Kp,u,cell,N: neurons, 500 nM, 5 h, 37 °C
Method: (§1) Human neural stem cells (hNSCs) derived from human embryonic stem cells (hESCs) were differentiated to neurons or astrocytes. […] Cells were allowed to differentiate into desired lineage for three weeks before the addition of peptides. The peptides were individually added to 2 mL Neurobasal medium to a final concentration of 500 nM and incubated at 37 °C for 5 h. The medium was removed, and the cells were subsequently lysed using 300 µL of Pierce™ lysis buffer (ThermoFisher Scientific Cat. No. 87787) per well. Samples were kept at −20 °C pending analysis. The uptake of peptides was determined using the total cellular-to-unbound medium concentrations ratio, Kp,u,cell (mL/g total protein), according to Equation (11). (11) Kp,u,cell=Ccell/Cu,medium=Acell/Vcell/Cu,medium where Acell (nanomoles per g total protein) is the total amount of peptide in the cell lysate normalized by the total protein content and estimated volume of the cells. Total protein concentration (mg/mL) in the cell lysate was determined using a NanoDrop 2000C (ThermoFisher, Waltham, MA, USA) by measuring the absorbance at 280 nm. Vcell was estimated using the value of 6.5 µL/mg protein by analogy of HEK293 cells. […] The parameter Kp,u,cell (mL per g of total protein at 5 h) is a partition coefficient between the buffer and the cell culture, where the fraction in the buffer has no binding, but the measured concentration in the cells is a composite of both uptake into the cells and binding to both the cell surface and intra-cellular components. This parameter is thereby similar to Vu,brain as it also gives a description of both binding and uptake processes.
(§2) For estimation of the extent of transport across the cellular membrane, the unbound intracellular-to-extracellular ratio, Kp,uu,cell was calculated as described below:(12) Kp,uu,cell=Kp,u,cell×fu,cell

[2] = system: astrocytes differentiated from human neural stem cells; conditions: 500 nM, 5 h, 37 °C
Method: as §1, §2

[3] = rat
Method: (§3) In short, lung slices were prepared by performing an in situ perfusion of the lungs of the rats with physiological saline and then filling them with agarose Type VII-A to facilitate slicing. Slices of 500 µm thickness were prepared using the Leica VT1200 microtome slicer (Leica Microsystems, Wetzlar, Germany). […] After a 5 h incubation at 37 °C in an incubated shaker (MaxQ4450 Thermo Fisher Scientific, NinoLab, Stockholm, Sweden) with a rotation speed of 45 rpm, the buffer and lung slices were sampled. To match the matrix of the lung slice samples, 200 μL of aECF was mixed with 200 μL of blank agarose-filled lung homogenate (1:4, w:v). The lung slices were individually removed, dried on filter paper, weighed, and thereafter homogenized in 9 volumes (w:v) of aECF with an ultrasonic processor (VCX-130; Sonics, Chemical Instruments AB, Stockholm, Sweden). All samples were stored at −20 °C pending LC-MS/MS analysis. Assuming that at equilibrium the concentration of the peptide in virtually protein-free buffer is equal to the interstitial fluid concentration in the lung slice, the Vu,lung (mL/g lung) was estimated using Equation (4) as a ratio of the amount of compound in the lung slice (Alung, nanomoles g lung) to the measured final buffer concentration (Cbuffer, micromole/L). […]

lung slices = conditions: rat lung slices, 200 nM, 5 h, 37 °C
Method: as §3

[4] = rat; for Kp at 4 h / Kp uu: in vivo; for Kp at 4 h / Total brain-to-plasma concentration ratio, Kp,brain: 0.5 mg/kg, 4 h infusion, total dose 0.5 mg/kg; for Kp at 4 h: Total brain-to-plasma concentration ratio, Kp,brain; for Kp at 4 h / Kp uu / Kp,uu,brain as percent equilibrating across the BBB / Total brain-to-plasma concentration ratio, Kp,brain / Unbound brain-to-plasma concentration ratio, Kp,uu,brain: steady state; for Kp uu: Unbound brain-to-plasma concentration ratio, Kp,uu,brain; for Kp uu / Unbound brain-to-plasma concentration ratio, Kp,uu,brain: Kp,brain/(fu,plasma × Vu,brain); for Total steady-state plasma concentration, Cplasma,ss: listed in Table S3
Method: In order to assure the accurate assessment of the extent of BBB transport and to minimize the use of animals, the achievement of steady-state conditions of total plasma concentration and equilibration across the blood–brain interface are critical. […] The infusion was administered through the catheter placed in the femoral vein. Blood (200 µL) was sampled from the catheter in the femoral artery at 1, 2, and 3 h into heparinized tubes to ensure that steady-state conditions were obtained in plasma. At 4 h, blood was sampled through heart puncture using EDTA vacutainers (BD, Eysins, Switzerland), and the whole brain was collected. The blood samples were centrifuged, and plasma was collected. All samples were immediately frozen on dry ice and then kept at −20 °C pending analysis.
The in vivo total brain-to-plasma concentration ratio, Kp,brain, was studied by measuring steady-state concentrations in plasma and the total amount in the brain (Equation (1)). (1) Kp,brain=Abrain/Cplasma where Abrain is the total amount of peptide in the brain calculated using Equation (2), including compensation for the residual cerebral blood, and Cplasma is total plasma concentration (µg/mL).
The unbound brain-to-plasma ratio, Kp,uu,brain, was calculated using Equation (13) according to the CMA [37], where Kp,brain is the total brain-to-plasma ratio, fu,plasma is the unbound fraction in plasma as measured with equilibrium dialysis, and Vu,brain is the unbound volume of distribution in brain measured with the brain slice technique. (13) Kp,uu,brain=Kp,brain/fu,plasma×Vu,brain

in vivo = conditions: rat; for Half-life, t½ / half-life: 10 min intravenous infusion; for Half-life, t½ / AUC(0-inf) / Vd / clearance / half-life: 0.5 mg/kg; for AUC(0-inf) / Vd / clearance / half-life: iv; for half-life: t½
Method: Since previous pharmacokinetic data were extremely sparse, a pilot study was performed in rats (n = 2), and simulations were performed in Berkeley Madonna (version 8.3.18 for Windows, Berkeley, CA, USA), defining suitable dose and sampling intervals from the parameters obtained in the pilot study. The surgical implantation of catheters made of polyethylene (PE50) in the femoral vein and artery for dosing of peptide and sampling of blood, respectively, was performed the day before experiments under isoflurane anaesthesia. The animals were then housed in a CMA120 system (CMA, Solna, Sweden) for freely moving animals with ad libitum access to food and water. […] All samples were added to heparinized low-binding Eppendorf tubes. The blood samples were centrifuged, and plasma was transferred to new Eppendorf tubes and immediately frozen at −20 °C. After bioanalysis, the area under the plasma concentration–time curve (AUC) was determined by the trapezoidal rule with extrapolation to time infinity followed by calculation of systemic clearance (CL), apparent volume of distribution (Vd), and half-life (t½).

plasma proteins = conditions: undiluted rat plasma, 1 µM, equilibrium dialysis 6 h 37 °C
Method: Peptide binding to plasma proteins, brain tissue homogenate, and lung tissue homogenate as well as to neuronal and astrocyte cell culture homogenates was investigated using equilibrium dialysis [47]. Undiluted plasma and brain from three peptide-naïve rats were used in the experiment. The brain homogenate was prepared by homogenizing 1 part brain with 4 parts of phosphate-buffered saline (PBS, pH 7.4). […] Semi-permeable membranes with a molecular weight cut-off of 12–14 kDa were used and placed in an HTD96b apparatus (HTDialysis, Gales Ferry, CT, USA). The undiluted plasma and respective homogenates were spiked with individual peptide to a concentration of 1 µM and were dialyzed against PBS (pH 7.4). Five technical replicates were prepared per biological replicate. The experiment was run for 6 h at 37 °C in a MaxQ4450 shaker (Thermo Fisher Scientific, NinoLab, Sweden) at 200 rpm. […] Aliquots (80 µL) were taken from the buffer and plasma/homogenate sides. To compensate for any differences in matrix during bioanalysis, the plasma and homogenate samples were mixed with equal volumes of blank buffer, and the buffer samples were mixed with an equal volume of relevant blank plasma/homogenate. Spiked plasma and respective homogenate samples were incubated to control for relative recovery and thermal stability of the peptides in respective matrices.
The unbound fraction in undiluted plasma was calculated using Equation (5), where Cbuffer is the unbound concentration of peptide in the buffer and Cplasma is the total concentration of peptide in plasma at 6 h. The binding of peptide in various homogenates was assessed in two steps. First, the fraction of unbound peptide in the diluted homogenate, fu,h,D, was calculated using Equation (6), where Chomogenate is the total concentration of peptide in respective homogenate at 6 h. Second, the correction for the dilution was implemented as described in Equation (7), where D is the dilution factor used in the preparation [47]. D was 5 for brain and lung homogenates and on average 35.3 for the cell culture studies, as determined based on the total protein content and the total volume of lysate. (5) fu,plasma=Cbuffer/Cplasma (6) fu,h,D=Cbuffer/Chomogenate (7) fu,tissue/cell=1/D/((1/fu,h,D )−1)+1/D

[5] = cell lysates vs brain homogenate, on average
[6] = design: method as in PubChem; conditions: estimates from PubChem; ref PubChem; cited from earlier work

Row | SMILES | Total neuronal cell-to-unbound medium concentration ratio, Kp,u,cell,N [1] [mL/g total protein] | Total astrocyte cell-to-unbound medium concentration ratio, Kp,u,cell,A [2] | Kp at 4 h [4] | Kp uu [4] | Kp,uu,brain as percent equilibrating across the BBB [4] [%] | Total brain-to-plasma concentration ratio, Kp,brain [4] | Unbound brain-to-plasma concentration ratio, Kp,uu,brain [4] | Total steady-state plasma concentration, Cplasma,ss [4] [nmol/L] | Half-life, t½ (in vivo; plasma) [min] | Fraction unbound in plasma, fu,plasma (plasma proteins) | also measured
1 | CC(C)C[C@@H]1NC(=O)CNC(=O)[C@H](CC(N)=O)NC(=O)[C@H](CCCNC(=N)N)NC(=O)[C@H]([C@@H](C)O)NC(=O)[C@@H]2CSSC[C@@H]3NC(=O)[C@H]([C@@H](C)O)NC(=O)CNC(=O)CNC(=O)[C@H](C(C)C)NC(=O)[C@@H]4CSSC[C@H](NC(=O)[C@H]([C@@H](C)O)NC(=O)[C@H](CSSC[C@H](NC(=O)[C@H](C(C)C)NC(=O)[C@@H]5CCCN5C1=O)C(=O)NCC(=O)N[C@@H](CCC(=O)O)C(=O)N[C@@H]([C@@H](C)O)C(=O)N4)NC(=O)CNC(=O)[C@@H]1CCCN1C(=O)[C@H]([C@@H](C)O)NC(=O)[C@H](CC(N)=O)NC3=O)C(=O)N[C@@H](CO)C(=O)N[C@@H](Cc1c[nH]c3ccccc13)C(=O)N1CCC[C@H]1C(=O)N[C@@H](C(C)C)C(=O)N2 [Kalata B1] | 135.35 ± 21.2 | 94.73 ± 3.08 mL/g total protein | 0.23 | 0.005 | 0.5 | 0.234 ± 0.083 | 0.00479 ± 0.0023 | 1096 | 35.8 ± 3.52 | 0.299 ± 0.095 | Relative reduction of Kp,uu,cell in cell culture versus tissue slice experiments ([1]; neuron and astrocyte cultures vs brain slices): ca. 3 fold; Difference between Kp,u,cell (neurons, astrocytes) and Vu,brain (brain slice assay) ([1]; neurons and astrocytes vs brain slices): less than 2 fold; Total astrocyte cell-to-unbound medium concentration ratio, Kp,u,cell,A ([2]; listed as kalata B1): 94.7 mL/g total protein; Kp uu [3]: 0.195 ± 0.107; Vu,lung (lung slices): 1.23 mL/g lung; AUC(0-inf) (in vivo; in vivo): 2800 ng·h/mL; Vd (in vivo; in vivo): 0.322 ± 0.0887 L/kg; clearance (in vivo; in vivo): 1.6 ± 0.396 mL/min/kg; half-life (in vivo; in vivo, plasma): 35 min
2 | CC[C@H](C)[C@@H]1NC(=O)[C@@H]2CCCN2C(=O)[C@@H]2CCCN2C(=O)[C@H]([C@@H](C)CC)NC(=O)[C@H](CO)NC(=O)[C@H](CCCCN)NC(=O)[C@H]([C@@H](C)O)NC(=O)[C@@H]2CSSC[C@H](NC1=O)C(=O)N[C@@H](Cc1ccccc1)C(=O)N1CCC[C@H]1C(=O)N[C@@H](CC(=O)O)C(=O)NCC(=O)N[C@@H](CCCNC(=N)N)C(=O)N2 [SFTI-1, sunflower trypsin inhibitor-1] | 31.11 ± 12.46 | 19.0 mL/g total protein and 19.02 ± 4.34 mL/g total protein | 0.06 | 0.13 | 13 | 0.0618 ± 0.0318 | 0.129 ± 0.0698 | 400 | 20.3 ± 3.50 | 0.936 ± 0.038 | fu,cell fold lower than fu,brain [5]: 3 fold; Kp,u,cell fold lower than for kalata B1 ([1]; neurons and astrocytes): up to 5 fold; Total plasma concentration post 120 min time point (below the quantification limit) (in vivo; 10 min infusion 0.5 mg/kg): < 5 ng/mL; AUC(0-inf) (in vivo; plasma): 1290 ng·h/mL; Vd (in vivo; plasma): 0.191 ± 0.0344 L/kg; clearance (in vivo; plasma): 1.82 ± 0.48 mL/min/kg; half-life (in vivo; plasma): 20 min; Predicted net charge [6]: 0
